Results as given in US11998640B2, “Room temperature stable oral calcitonin formulation” (PARK THERAPEUTICS, INC., priority 2016, dated 2024).

Assays:
[1] = Water content of rsCT and excipient powders by Karl Fischer Coulometric Titration Method 1c; type: physicochemical; settings: for Dried Water content: powder after drying in a lyophilizer; for Untreated Water Content: powder in its untreated state
Experimental: The stability of rsCT in the binary presence of the tablet core and subcoat excipients, as well as the effect of intrinsic and extrinsic moisture on the stability of those mixtures, was thoroughly examined. Each of the components including rsCT was evaluated in its untreated state and after drying in a lyophilizer (dried). The water content of each powder was determined by Karl Fischer Coulometric Titration Method 1c prior to preparation of the binary mixtures and is presented in Table 1, below.

[2] = Binary mixture study: stability of rsCT with individual excipients stored at 40° C. (recovery and purity); type: physicochemical; settings: for rsCT stability in binary mixture: 40° C.
Experimental: Binary mixtures were prepared by combining about 18 mg of rsCT with about 300 mg of each of the excipients, individually. Each binary mixture was evaluated in the presence or absence of 10% (w/w) water. Control samples included rsCT only. The mixtures were stored at 40° C., were pulled in duplicate after 7 days and 32 days, and were evaluated for recovery (assay activity relative to that of untreated and dried rsCT) and purity.

[3] = more potent than human calcitonin; cited from earlier work

Compound | Dried Water content [1] [%] | Untreated Water Content [1] [%] | Average Purity (Area %) ([2]; 10% (v/w) Water Added, T = 7 days at 40° C.) [% Area %] | Average Purity (Area %) ([2]; 10% (v/w) Water Added, T = 32 days at 40° C.) [% Area %] | Average Purity (Area %) ([2]; Untreated Powders, T = 7 days at 40° C.) [% Area %] | Average Purity (Area %) ([2]; Untreated Powders, T = 32 days at 40° C.) [% Area %] | rsCT stability in binary mixture ([2]; in the presence of water and Citric Acid DC F20) | rsCT stability in binary mixture ([2]; in the presence of water and Kollicoat IR) | rsCT stability in binary mixture ([2]; in the presence of water and Prosolv HD90) | Potency relative to human calcitonin [3]
Magnesium Stearate | 3.51 | 5.00 | – | – | – | – | – | – | – | –
CC(C)C[C@H](NC(=O)[C@H](CCCCN)NC(=O)CNC(=O)[C@H](CC(C)C)NC(=O)[C@@H](NC(=O)[C@@H]1CSSC[C@H](N)C(=O)N[C@@H](CO)C(=O)N[C@@H](CC(N)=O)C(=O)N[C@@H](CC(C)C)C(=O)N[C@@H](CO)C(=O)N[C@@H]([C@@H](C)O)C(=O)N1)C(C)C)C(=O)N[C@@H](CO)C(=O)N[C@@H](CCC(N)=O)C(=O)N[C@@H](CCC(=O)O)C(=O)N[C@@H](CC(C)C)C(=O)N[C@@H](Cc1c[nH]cn1)C(=O)N[C@@H](CCCCN)C(=O)N[C@@H](CC(C)C)C(=O)N[C@@H](CCC(N)=O)C(=O)N[C@H](C(=O)N[C@@H](Cc1ccc(O)cc1)C(=O)N1CCC[C@H]1C(=O)N[C@@H](CCCNC(=N)N)C(=O)N[C@H](C(=O)N[C@@H](CC(N)=O)C(=O)N[C@H](C(=O)NCC(=O)N[C@@H](CO)C(=O)NCC(=O)N[C@H](C(=O)N1CCC[C@H]1C(N)=O)[C@@H](C)O)[C@@H](C)O)[C@@H](C)O)[C@@H](C)O [rsCT, salmon calcitonin] | 0.90 | 8.91 | 98.2 | 95.1 | 98.9 | 96.0 | rapidly degraded with concomitant loss of recovery and purity | loss of rsCT activity and loss in purity | rapid loss of rsCT activity and non-concomitant loss in purity | 30-50 times
